For data set [1] the following is noted: cited from earlier work.
For another data set, the system named is Mdr1a P-gp. On the set-up: method as in PMID 9050899. The note with it: cited from earlier work.
Another data set relates to Caco-2 cells. Kind of data set: In vitro cellular uptake of Rh123 in Caco-2 cells. The note with it: Rh123 20 µM, 5 h incubation, 37 °C; TPGS 33 µM, CyA 4 µM.

Each structure is given as a SMILES string. Read-outs that look alike come from different tables or passages of the source.

In general, LogP refers to a log measure of how a compound divides between an organic and an aqueous phase. As a reminder, the pKa is the pH at which an ionisable group is half protonated. For the molecule `CC(=O)O[C@H]1C(=O)[C@@]2(C)[C@H]([C@H](OC(=O)c3ccccc3)[C@]3(O)C[C@H](OC(=O)[C@H](O)[C@@H](NC(=O)c4ccccc4)c4ccccc4)C(C)=C1C3(C)C)[C@]1(OC(C)=O)CO[C@@H]1C[C@@H]2O` [PTX, Paclitaxel], in data set [1], the LogP is on record as 3.66 and the pKa is 10.36. In addition, the “increase in plasma AUC of PTX, Mdr1a knockout vs wild-type mice” value with Mdr1a P-gp (IV administration) was “twofold increase”. Moreover, the “increase in plasma AUC of PTX, Mdr1a knockout vs wild-type mice” value in the data set on Mdr1a P-gp (oral administration) is “more than sixfold increase”.

For the molecule `COC(=O)c1ccccc1-c1c2ccc(=N)cc-2oc2cc(N)ccc12` [free Rh123, rhodamine 123], the “fluorescence intensity (cellular uptake of Rh123)” value in the data set with Caco-2 cells was “very low fluorescence intensity”.

These data come from PMC11314731 (Polymers, 2024).
